Measured values as given in PMC11323243, “Novel Inhibitors of SARS-CoV-2 RNA Identified through Virtual Screening” (Journal of Chemical Information and Modeling, 2024).
“Also recorded” adds a separate entry of the source.

How the values were obtained:
[1] = system: −1PRF element of SARS-CoV-2; experiment: Dual-luciferase assay measuring frameshift efficiency; format: cell-based; conditions: Vero E6 cells; for effect on frameshift efficiency (in words): dual-luciferase assay; for reduction of frameshift efficiency: single nontoxic dose
[2] = system: Omicron (BA.1) SARS-CoV-2; experiment: Antiviral activity, plaque reduction assay on Vero E6 cells; format: cell-based; conditions: CC50/EC50, Vero E6 cells
[3] = Cell viability (MTT) after 3 days of exposure; format: cell-based; conditions: African green monkey, Vero E6 cells, read-out: CC50, concentration reducing cell viability by 50%
[4] = system: −1PRF element of SARS-CoV-2; conditions: previously identified; cited from earlier work

Row | Structure (SMILES) | effect on frameshift efficiency (in words) [1] | SI, selective index [2] | CC50 at 3 days [3] | further results
1 | Cc1cc2c(cc1CN1CC(CO)C(CN3CCN(C)CC3)C1)OCCO2 (centres unmarked) [Compound 782] | significant and improved reduction of frameshift efficiency compared to 194; also recorded: dose-dependent |  |  | reduction of frameshift efficiency [1]: 38%
2 | Cc1cc2c(cc1CN1CC(CO)C(CN3CCCCCC3)C1)OCCO2 (centres unmarked) [Compound 194] | significant reduction in frameshift efficiency | >3.46 | > 100 µM | reduction of frameshift efficiency [1]: 23%
3 | OC1CCCN(C2CCN(Cc3ncc[nH]3)CC2)C1 (centres unmarked) [Compound 21256088] |  |  | > 100 µM | 
4 | OCC1CN(Cc2cc3c(cc2Cl)OCO3)CC1CN1CCCCCC1 (centres unmarked) [Compound 269] | nonsignificant reduction of frameshift efficiency; also recorded: reduction in frameshift, though not statistically significant |  |  | 
5 | OC1CN(Cc2cccc3cc[nH]c23)CCN(c2ccncc2)C1 (centres unmarked) [Compound 229] |  | 3.47 | 93 µM | 
6 | NCCc1ccc(CN2CCC(O)(c3cccc(C(F)(F)F)c3)CC2)cc1 [Compound 188] |  | 4.69 | 80.6 µM | 
7 | CN[C@@H]1[C@@H](O)[C@@H](O[C@@H]2[C@@H](O)[C@H](O[C@H]3O[C@H]([C@@H](C)O)[C@@H](O)[C@H](O)[C@H]3N)[C@@H](N)C[C@H]2N)OC[C@]1(C)O [geneticin] |  |  |  | inhibition of the −1PRF of SARS-CoV-2 (in words) [4]: specific inhibition of the −1PRF of SARS-CoV-2
8 | Cc1nc(CN)cc(N2CCC(C(O)c3nccn3C)CC2)n1 (centres unmarked) [Compound 32807865] |  |  | > 100 µM | 
9 | CCNCC1CCN(c2c(F)cc3c(=O)c(C(=O)O)cn(CC)c3c2F)C1 (centres unmarked) [merafloxacin] |  |  |  | inhibition of the −1PRF of SARS-CoV-2 (in words) [4]: specific inhibition of the −1PRF of SARS-CoV-2
10 | Clc1ccc2c(N3CCN(CCCN4CCN(c5ccnc6cc(Cl)ccc56)CC4)CC3)ccnc2c1 [piperaquine, reference compound] |  | 0.49 | 5.66 µM | 
